Data on 24 compounds can be found in patent publication US20250353863A1, “TRICYCLIC SPIROLACTAM COMPOUNDS WITH ANTIMYCOBACTERIAL ACTIVITY” (priority 2022, published 2025).

The subject of the assay is Mtb H37Rv-WT. Kind of assay: MIC by resazurin microtiter assay (REMA) against Mtb. Type of assay: cell-based. Particulars: Mycobacterium tuberculosis, 144 h, REMA, 37° C., 6 days, read-out: MIC (μM) H37Rv-WT.

≈ marks a conversion by molar mass, not a printed value. Where only a bound is given, the exact number is not on record here.

`CC(C)[C@H]1CO[C@]23CCN(Cc4ccc(C(F)(F)F)cc4C(F)(F)F)C[C@H]2CCC(=O)N13` [(3S,7aR,11aR)-9-[[2,4-bis(trifluoromethyl)phenyl]methyl]-3-isopropyl-2,3,6,7,7a,8,10,11-octahydrooxazolo[2,3-j][1,6]naphthyridin-5-one]: the MIC – broadly, the least concentration at which growth counts as inhibited – was < 1 µM.

Take `CC(C)[C@H]1CO[C@]23CCN(Cc4ccc(C(F)(F)F)cc4)C[C@H]2C[C@@H](C)C(=O)N13`: the MIC is < 1 µM.

`O=C1CC[C@@H]2CN(Cc3ccc(C(F)(F)F)cc3)CC[C@@]23OC[C@H](C(F)(F)F)N13` [(3R,7aR,11aR)-3-(trifluoromethyl)-9-[[4-(trifluoromethyl)phenyl]methyl]-2,3,6,7,7a,8,10,11-octahydrooxazolo[2,3-j][1,6]naphthyridin-5-one]: the MIC was > 10 µM.

In the case of `CC(C)[C@H]1CO[C@]23CCN(Cc4ccc(C(F)(F)F)cc4)C[C@H]2CC(F)(F)C(=O)N13` [(3S,7aR,11aR)-6,6-difluoro-3-isopropyl-9-[[4-(trifluoromethyl)phenyl]methyl]-3,7,7a,8,10,11-hexahydro-2H-oxazolo[2,3-j][1,6]naphthyridin-5-one], the MIC is < 1 µM. Turning to `CC(C)[C@H]1CO[C@]23CCN(Cc4ccc(O)cc4)C[C@H]2CCC(=O)N13` [(3S,7aR,11aR)-9-[(4-hydroxyphenyl)methyl]-3-isopropyl-2,3,6,7,7a,8,10,11-octahydrooxazolo[2,3-j][1,6]naphthyridin-5-one], the MIC is > 10 µM. Consider `CC(C)[C@H]1CO[C@]23CCN(CC4CCCCO4)C[C@H]2CCC(=O)N13` (stereo partly drawn) [(3S,7aR,11aR)-3-isopropyl-9-(tetrahydropyran-2-ylmethyl)-2,3,6,7,7a,8,10,11-octahydrooxazolo[2,3-j][1,6]naphthyridin-5-one], for which the MIC fell in the range of 1 to 10 µM (≈ 0.336 to 3.36 µg/mL). As for `CC(C)[C@H]1CO[C@]23CCN(C(=O)C(F)(F)c4ccc(C(F)(F)F)cc4)C[C@H]2CCC(=O)N13` [(3S,7aR,11aR)-9-[2,2-difluoro-2-[4-(trifluoromethyl)phenyl]acetyl]-3-isopropyl-2,3,6,7,7a,8,10,11-octahydrooxazolo[2,3-j][1,6]naphthyridin-5-one], the minimum inhibitory concentration (MIC) was > 10 µM. In the case of `CC(C)[C@H]1CO[C@]23CCN(Cc4ccc(N5CCC(Oc6ccc(OC(F)(F)F)cc6)CC5)cc4)C[C@H]2CCC(=O)N13` [(3S,7aR,11aR)-3-isopropyl-9-[[4-[4-[4-(trifluoromethoxy)phenoxy]-1-piperidyl]phenyl]methyl]-2,3,6,7,7a,8,10,11-octahydrooxazolo[2,3-j][1,6]naphthyridin-5-one], the MIC was < 1 µM. For `CC(C)[C@H]1CO[C@]23CCN(Cc4ccc(C(F)(F)F)cc4)C[C@H]2C[C@H](C)C(=O)N13` (single isomer, unassigned), the MIC was 1 to 10 µM (≈ 0.41 to 4.1 µg/mL).

For the compound `CC(C)[C@H]1CO[C@]23CCN(Cc4ccc(C(F)(F)F)cc4)C[C@H]2C[C@@H](F)C(=O)N13` [(3S,7aR,11aR)-6-fluoro-3-isopropyl-9-[[4-(trifluoromethyl)phenyl]methyl]-2,3,6,7,7a,8,10,11-octahydrooxazolo[2,3-j][1,6]naphthyridin-5-one], the minimal inhibitory concentration (MIC) was < 1 µM.

Take `CC(C)[C@H]1CO[C@]23CCN(Cc4ccc5ncccc5c4)C[C@H]2CCC(=O)N13` [(3S,7aR,11aR)-3-isopropyl-9-(6-quinolylmethyl)-2,3,6,7,7a,8,10,11-octahydrooxazolo[2,3-j][1,6]naphthyridin-5-one]: the MIC was in the range of 1 to 10 µM (≈ 0.38 to 3.8 µg/mL). With `C=CC[C@@H]1C[C@@H]2CN(Cc3ccc(C(F)(F)F)cc3)CC[C@@]23OC[C@H](C(C)C)N3C1=O` [(3S,6R,7aR,11aR)-6-allyl-3-isopropyl-9-[[4-(trifluoromethyl)phenyl]methyl]-2,3,6,7,7a,8,10,11-octahydrooxazolo[2,3-j][1,6]naphthyridin-5-one], the MIC lay in the range of 1 to 10 µM (≈ 0.437 to 4.37 µg/mL). With `CC(C)[C@H]1CO[C@]23CCN(Cc4ccc(F)cc4)C[C@H]2CCC(=O)N13` [(3S,7aR,11aR)-9-[(4-fluorophenyl)methyl]-3-isopropyl-2,3,6,7,7a,8,10,11-octahydrooxazolo[2,3-j][1,6]naphthyridin-5-one] the figure was < 1 µM; with `CC(C)[C@H]1CO[C@]23CCN(Cc4ccc(OC(F)(F)F)cc4)C[C@H]2CCC(=O)N13`, < 1 µM. For the compound `CC(C)[C@H]1CO[C@]23CCN(Cc4cccc(Oc5ccccc5)c4)C[C@H]2CCC(=O)N13` [(3S,7aR,11aR)-3-isopropyl-9-[(3-phenoxyphenyl)methyl]-2,3,6,7,7a,8,10,11-octahydrooxazolo[2,3-j][1,6]naphthyridin-5-one], the MIC was < 1 µM. As to `CC(C)[C@H]1CO[C@]23CCN(Cc4ccc(C(F)(F)F)cc4)[C@H]2CCC(=O)N13` [(1R,4S,9S)-4-isopropyl-10-[[4-(trifluoromethyl)phenyl]methyl]-2-oxa-5,10-diazatricyclo[7.3.0.01,5]dodecan-6-one], the MIC is < 1 µM. As for `CC(C)[C@H]1CO[C@]23CCN(C4CCCCC4)C[C@H]2CCC(=O)N13` [(3S,7aR,11aR)-9-cyclohexyl-3-isopropyl-2,3,6,7,7a,8,10,11-octahydrooxazolo[2,3-j][1,6]naphthyridin-5-one], the MIC was > 10 µM. For `CC(C)[C@H]1CO[C@]23CCN(C(=O)OCc4ccc(C(F)(F)F)cc4)C[C@H]2CCC(=O)N13` [[4-(trifluoromethyl)phenyl]methyl (3S,7aR,11aR)-3-isopropyl-5-oxo-2,3,6,7,7a,8,10,11-octahydrooxazolo[2,3-j][1,6]naphthyridine-9-carboxylate], the MIC lay within 1 to 10 µM (≈ 0.44 to 4.4 µg/mL).

In the case of `CC(C)[C@H]1CO[C@]23CCN(CCCc4ccc(C(F)(F)F)cc4)C[C@H]2CCC(=O)N13` [(3S,7aR,11aR)-3-isopropyl-9-[3-[4-(trifluoromethyl)phenyl]propyl]-2,3,6,7,7a,8,10,11-octahydrooxazolo[2,3-j][1,6]naphthyridin-5-one], the MIC was < 1 µM. Regarding `CC(C)[C@H]1CO[C@]23CC[C@H](N(Cc4ccc(C(F)(F)F)cc4)Cc4ccc(C(F)(F)F)cc4)C[C@H]2CCC(=O)N13`, the MIC is < 1 µM. With `CC(C)[C@H]1CO[C@]23CCN(Cc4cc(C5CC5)nc5ccccc45)C[C@H]2CCC(=O)N13` [(3S,7aR,11aR)-9-[(2-cyclopropyl-4-quinolyl)methyl]-3-isopropyl-2,3,6,7,7a,8,10,11-octahydrooxazolo[2,3-j][1,6]naphthyridin-5-one] the figure was < 1 µM. Take `CC[C@H]1C[C@@H]2CN(Cc3ccc(C(F)(F)F)cc3)CC[C@@]23OC[C@H](C(C)C)N3C1=O` [(3S,6S,7aR,11aR)-6-ethyl-3-isopropyl-9-[[4-(trifluoromethyl)phenyl]methyl]-2,3,6,7,7a,8,10,11-octahydrooxazolo[2,3-j][1,6]naphthyridin-5-one]: the MIC was > 10 µM. In the case of `CC(C)[C@H]1CO[C@]23CCN(CC(F)(F)c4ccc(C(F)(F)F)cc4)C[C@H]2CCC(=O)N13` [(3S,7aR,11aR)-9-[2,2-difluoro-2-[4-(trifluoromethyl)phenyl]ethyl]-3-isopropyl-2,3,6,7,7a,8,10,11-octahydrooxazolo[2,3-j][1,6]naphthyridin-5-one], the minimal inhibitory concentration (MIC) is < 1 µM. For the compound `CC(C)[C@H]1CO[C@]23CCN(Cc4ccc(Cl)c(C(F)(F)F)c4)C[C@H]2CCC(=O)N13` [(3S,7aR,11aR)-9-[[4-chloro-3-(trifluoromethyl)phenyl]methyl]-3-isopropyl-2,3,6,7,7a,8,10,11-octahydrooxazolo[2,3-j][1,6]naphthyridin-5-one], the MIC is < 1 µM.
